Laboratory results published in PubChem BioAssay AID1159565 (GlaxoSmithKline (GSK), 2015).
The source made the active and inactive calls. No rule for the calls is given here.

Tested on: T. cruzi-infected H9C2 cardiomyocytes, high-content imaging
Assay: anti-T. cruzi activity in infected cardiomyocytes – imaging, H9C2 host cardiomyocytes, host toxicity (AID 1159565);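 also: infected cells incubated 72 h after plating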
[1] = measured here: H9C2 host cell toxicity
[2] = measured here: amastigotes per cell

SMILES | IC50 | IC50 [1] | IC50 [2]
COc1ccc(-c2cc(C)no2)cc1S(=O)(=O)Nc1ccc(C)c(C)c1 | 7.9 µM | 16 µM | 5 µM
NC(=O)c1cc(NC(=O)c2ccccc2COc2ccccc2)ccc1Cl | 32 µM | > 50 µM | 25 µM
CCc1cc(C(=O)Nc2nccn2-c2ccccc2)cs1 | 5 µM | 20 µM | 3.2 µM
Cn1nc([N+](=O)[O-])nc1N1CCCCC1 | 13 µM | > 50 µM | 1 µM
CC(C)(C)Nc1nc(Nc2ccc3c(c2)CS(=O)(=O)C3)nc2[nH]ccc12 | 32 µM | 1 µM | 20 µM
CC(C(=O)Nc1ccc(Br)cc1)N1CCN(c2ccc([N+](=O)[O-])cc2)CC1 (stereo not drawn) | 2.5 µM | > 50 µM | 3.2 µM
O=C(NCc1nnc2n1CCCCC2)c1csc(-c2ccccc2)n1 | 2 µM | > 50 µM | 2 µM
Cc1[nH]c2ccccc2c(=O)c1Cc1c(C)[nH]c2ccccc2c1=O | 3.2 µM | > 50 µM | 1 µM
CS(=O)(=O)NC1CCC(Nc2ncc(Br)c(Nc3ccccc3C(N)=O)n2)CC1 (stereo not drawn) | 5 µM | 0.5 µM | 2 µM
CCc1cccc(CC)c1-n1c(SCC(=O)NC(=O)NCc2ccco2)nnc1-c1cccnc1 | 13 µM | > 50 µM | 7.9 µM
Cc1nc2c(-c3n[nH]c(-c4ccccc4N)n3)cccn2c1C | 2.5 µM | 5 µM | 1.6 µM
NCC(Cc1ccccc1)NC(=O)c1cnc(-c2c[nH]c3ncccc23)s1 (stereo not drawn) | > 50 µM (inactive) | 0.63 µM | 20 µM
COc1cnc2ccc(=O)n(CCN3CCC(NC/C=C/c4cc(F)ccc4F)CC3)c2c1 | 0.02 µM | 16 µM | 0.01 µM
Cc1ccc2c(c1)SC(C(=O)Nc1n[nH]c(-c3ccccn3)n1)C2 (stereo not drawn) | 7.9 µM | > 50 µM | 6.3 µM
O=S(=O)(c1cccc(CSc2nnc(-c3ccc4c(c3)OCO4)o2)c1)N1CCOCC1 | 0.1 µM | 25 µM | 0.04 µM
NC(=O)c1cc(F)ccc1Nc1nc(NC2CCC(O)CC2)ncc1Cl (stereo not drawn) | 5 µM | 1.6 µM | 1.6 µM
Cc1nn(-c2ccccc2)nc1CNC(=O)CN(Cc1ccccn1)Cc1ccccn1 | 10 µM | 63 µM | 3.2 µM
O=C(NCCc1csc(-c2ccc(F)cc2)n1)c1cccs1 | 0.4 µM | > 50 µM | 0.25 µM
COCc1cc(Nc2ccc(Cl)cc2)nc(-c2ccccn2)n1 | 5 µM | 1.3 µM | 2.5 µM
N#Cc1cccc(Cc2cc(Nc3cc(C4CC4)[nH]n3)nc(N3CC[C@H]3C(N)=O)n2)c1 | 4 µM | 0.004 µM | 1 µM
CC1=C(C(=O)Nc2ccc(Cl)cc2)C(c2ccncc2)n2ncc(C(=O)Nc3ccccc3)c2N1 (stereo not drawn) | 0.02 µM | > 50 µM | 0.02 µM
CC(C)C[C@H](NC(=O)c1csc(-c2cccs2)n1)C(=O)NC1(C#N)CC1 | > 50 µM (inactive) | > 50 µM | 20 µM
O=C(Nc1n[nH]c(-c2ccccn2)n1)C1CC1c1ccccc1 (stereo not drawn) | 20 µM | > 50 µM | 16 µM
CS(=O)(=O)N1CCC(Nc2ncc(Br)c(Nc3cccc(F)c3C(N)=O)n2)CC1 | 1 µM | 0.16 µM | 0.4 µM
CCC(=O)Nc1ccc(-c2nc3ccc(Cl)cc3[nH]2)cc1 | 1.6 µM | > 50 µM | 0.5 µM
CCc1c(C)nc(-n2nc(C)cc2NC(=O)COc2ccccc2F)[nH]c1=O | 0.63 µM | 2.5 µM | 0.16 µM
